Inconclusive results and toxic doses are left out. Rule for the calls: active = survival T/C of 150% or more; inactive = T/C below 125% in these data.
System: CD2F1 mice, L1210 leukemia ip, survival T/C
Experiment: NCI In Vivo Anticancer Drug Screen. Data for tumor model L1210 Leukemia (intraperitoneal) in CD2F1 (CDF1) mice
Conditions: endpoint: mean survival time, schedule: Q01DX005 (ip), vehicle: water, higher = longer survival
Summary of the method: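 Each value reflects a quotient of treated over vehicle control outcomes in mice with a transplanted tumor.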

Measured: T/C

Cn1c(=O)c2c(ncn2CCCNCC(O)c2ccc(O)c(O)c2)n(C)c1=O (centres undefined)
inactive: dose: 12.5 mg/kg/injection 98 % of control | dose: 25.0 mg/kg/injection 98 % of control | dose: 50.0 mg/kg/injection 94 % of control | dose: 100.0 mg/kg/injection 100 % of control

Reference: PubChem BioAssay AID256 (DTP/NCI, 2004)
